Values after ≈ are worked out from the molar mass of the structure shown. Where two headings read alike, the source gives them in different places.
Key:
[1] = in vitro; format: cell-based
Experimental: (§1) First, to determine if the activity of C1 was due to toxicity, 2B4.11 T-cells (1×10^5) were cultured in microtiter wells in the presence of the peptide conjugates at 50 μM. After 20 hours, 30 μL were removed and cells assessed for viability by trypan blue staining. The remaining culture was then pulsed with 0.5 μCi [^3H] thymidine for 5 h, harvested, and quantitated for [^3H] thymidine uptake to assess cellular proliferation.

[2] = test system: 2B4.11 T-cells; test: in vitro; format: cell-based; settings: 50 μM, relative to 0.5% DMSO control; ±SD
Experimental: as §1

[3] = test system: 2B4.11 cells; test: T-cell activation with H57-597 antibody (TCRβ chain crosslinking), IL-2 production; format: cell-based; settings: H57-597 0.5 μg/mL with LK cells; 50 μM; relative to DMSO control; ±SD
Experimental: To analyse the mode of action of C1, T-cells were activated using 2C11-145 and H57-597 antibodies. The H57-597 antibody is directed against the TCRβ chain, and when administered at sub-optimal doses in conjunction with accessory cells (LK35.2), is capable of activating T cells. […] C1 was added to give a final reaction volume of 250 μL at 50 μM and 0.5% DMSO.

[4] = test system: Wistar rats; test: Adjuvant-induced arthritis model; format: in vivo; settings: given subcutaneously, four daily injections of 6 mg at onset of arthritis
[5] = test system: S. aureus; format: cell-based
Experimental: The synthetic C1 peptide and its analogues were tested using Standard disk susceptibility testing by National Committee for […] Laboratory Standards (NCCLS) against, S. aureus, E. coli and S. pneumoniae. […]

[6] = test system: NOD mice; test: Treatment of NOD mice, blood glucose level / diabetes; format: in vivo; settings: i.p. injections of 0.1 mg
Experimental: NOD mice were fasted for at least 1.5 h prior to blood glucose level (BGL) measurements. In the morning, all mice were treated with intraperitoneal (i.p.) injections of 0.1 mg C1 and BGLs were taken. Control mice received 0.2 mL of water.

Compound: CC(C)C[C@@H]1NC(=O)[C@@H](CC(C)C)NC(=O)[C@H](CCCNC(=N)N)NC(=O)[C@@H](CC(C)C)NC(=O)CNC(=O)[C@@H](C(C)C)NC(=O)[C@H](CCCCN)NC(=O)[C@@H](CC(C)C)NC(=O)[C@H](CC(C)C)NC(=O)[C@@H](CC(C)C)NC1=O [C1, LDRLDLLDLLDKVDG]
- viability at 20 h, 50 µM [1]: 86.6%
- cellular proliferation ([3H] thymidine uptake) [2]: 62.56%±14.25
- IL-2 production [3]: 54.02%+/−9.32
- effect in reducing inflammation (total foot swelling) [4]: comparable effect to cyclosporin
- MIC against S. aureus [5]: 100 µg/mL (≈ 89.3 µM)
- antimicrobial activity, S. aureus ([5]; peptide 10 μg/ml): −ve
- antimicrobial activity, S. aureus ([5]; peptide 100 μg/ml): +ve
- antimicrobial activity, S. aureus ([5]; peptide 1000 μg/ml): +ve
- blood glucose level control versus control group [6]: more tightly controlled
- mice that developed diabetes (BGL higher than 15 mM on two consecutive days) ([6]; preliminary results, control 7/21): 2/7
